The data set can be described thus: Solubility of DHEA in various conventional solubilizing agents. The format is physicochemical. The following applies: for Solubility after one month (AT): ambient temperature. How it is done:
The solubility of DHEA in various conventional solubilizing agents is mentioned in Table 2 below by way of comparison (the percentage of DHEA is calculated with respect to the total weight of DHEA and of solvent; AT refers to ambient temperature): […]

The mark [1] stands for this setting: solvent Benzoate of C12-15 alcohols, 3% DHEA.
The mark [2] stands for this setting: solvent Propylene glycol, 5-10% DHEA.
Where [3] appears, read: solvent Propylene glycol, 15-20% DHEA.

On to `C[C@]12CC[C@H](O)CC1=CC[C@@H]1[C@@H]2CC[C@]2(C)C(=O)CC[C@@H]12` [DHEA, dehydroepiandrosterone], for which the Solubility entry was “Soluble at 50 °C” under setting [1]; “Insoluble even at” (solvent Dodecanol, 10% DHEA); “Soluble at AT” (solvent Phenoxyethanol, 20% DHEA (of total weight of DHEA and solvent)); “Soluble at 50 °C” under setting [2]; “Insoluble at AT” under setting [3]. Moreover, the “Solubility after one month (AT)” value is listed as “Crystals” under setting [1]; “Crystals” (solvent Dodecanol, 10% DHEA); “Crystals” (solvent Phenoxyethanol, 20% DHEA); “Crystals” under setting [2]; “Crystals” under setting [3].

These data come from US6486147B2, “Cosmetic composition containing a steroid and a 2-alkylalkanol or an ester thereof” (L'Oreal, priority 2000, dated 2002).
